Values of other authors, collected in Sander's compilation of Henry's law constants.
Blank lines part the entries; values can stand above or below the compound they belong to.

Legend:
[1] = Henry solubility constant Hcp at 293 K (mol/(m3 Pa)); settings: cited value
[2] = Henry solubility constant Hcp at 298.15 K (mol/(m3 Pa)); settings: cited value
[3] = reference: Nicholson et al. (1984)
[4] = reference: Burkholder et al. (2015)
[5] = reference: Burkholder et al. (2019)
[6] = reference: Fogg and Sangster (2003)
[7] = reference: Sander et al. (2006)
[8] = reference: Sander et al. (2011)
[9] = reference: Barcelo and Hennion (1997)
[10] = reference: Hine and Weimar (1965)

Compound: ClC(Cl)Br [bromodichloromethane]
Henry solubility constant Hcp at 293 K [1, 3]: 0.0047
Henry solubility constant Hcp [2, 4]: 0.004
Henry solubility constant Hcp [2, 5]: 0.004
Henry solubility constant Hcp [2, 6]: 0.0048
Henry solubility constant Hcp ([2]; reference: Goldstein (1982)): 0.0046
Henry solubility constant Hcp [2, 3]: 0.0043
Henry solubility constant Hcp [2, 7]: 0.004
Henry solubility constant Hcp [2, 8]: 0.004

Compound: O=O [oxygen]
Henry solubility constant Hcp at 293 K ([1]; reference: Nunn (1958)): 1.4e-05
Henry solubility constant Hcp ([2]; reference: Battino (1981)): 1.3e-05
Henry solubility constant Hcp ([2]; reference: Battino et al. (1983)): 1.3e-05
Henry solubility constant Hcp [2, 4]: 1.3e-05
Henry solubility constant Hcp [2, 5]: 1.3e-05
Henry solubility constant Hcp ([2]; reference: Himmelblau (1960)): 1.2e-05
Henry solubility constant Hcp [2, 7]: 1.3e-05
Henry solubility constant Hcp [2, 8]: 1.3e-05

Compound: O=C=O [carbon dioxide]
Henry solubility constant Hcp at 293 K ([1]; reference: Nunn (1958)): 0.00039
Henry solubility constant Hcp [2, 4]: 0.00034
Henry solubility constant Hcp [2, 5]: 0.00034
Henry solubility constant Hcp ([2]; reference: Carroll et al. (1991)): 0.00034
Henry solubility constant Hcp ([2]; reference: Chen et al. (1979)): 0.00034
Henry solubility constant Hcp ([2]; reference: Crovetto (1991)): 0.00034
Henry solubility constant Hcp ([2]; reference: Edwards et al. (1978)): 0.00034
Henry solubility constant Hcp ([2]; reference: Lelieveld and Crutzen (1991)): 0.00034
Henry solubility constant Hcp ([2]; reference: Pandis and Seinfeld (1989)): 0.00034
Henry solubility constant Hcp ([2]; reference: Perry and Chilton (1973)): 0.00034
Henry solubility constant Hcp [2, 7]: 0.00033
Henry solubility constant Hcp [2, 8]: 0.00033
Henry solubility constant Hcp ([2]; reference: Weiss (1974)): 0.00034
Henry solubility constant Hcp ([2]; reference: Yoo et al. (1986)): 0.00034

Compound: BrBr [bromine (molecular)]
Henry solubility constant Hcp at 293 K ([1]; reference: Giona et al. (1969)): 0.0092
Henry solubility constant Hcp [2, 4]: 0.0072
Henry solubility constant Hcp [2, 5]: 0.0072
Henry solubility constant Hcp ([2]; reference: Jenkins and King (1965)): 0.0079
Henry solubility constant Hcp [2, 7]: 0.0072
Henry solubility constant Hcp [2, 8]: 0.0072

Compound: CSC [dimethyl sulfide]
Henry solubility constant Hcp at 293 K ([1]; reference: Vitenberg et al. (1975)): 0.007
Henry solubility constant Hcp ([2]; reference: Brockbank (2013)): 0.0054
Henry solubility constant Hcp [2, 4]: 0.0053
Henry solubility constant Hcp [2, 5]: 0.0053
Henry solubility constant Hcp [2, 6]: 0.0052
Henry solubility constant Hcp ([2]; reference: Gaffney and Senum (1984)): 0.0061
Henry solubility constant Hcp [2, 7]: 0.0053
Henry solubility constant Hcp [2, 8]: 0.0053

Compound: Cc1cc(C)nc(Nc2ccccc2)n1 [pyrimethanil]
Henry solubility constant Hcp at 293 K ([1]; reference: Tomlin (1998)): 280

Compound: CC(Cc1ccc(C(C)(C)C)cc1)CN1CCCCC1 (stereo not given) [fenpropidin]
Henry solubility constant Hcp at 293 K ([1]; reference: Tomlin (1998)): 0.099

Compound: C=CC(=O)OCC [ethyl propenoate]
Henry solubility constant Hcp ([2]; reference: Brockbank (2013)): 0.039

Compound: ClC1=C(Cl)[C@]2(Cl)[C@H]3[C@H]([C@@H]4C=C[C@H]3C4)[C@@]1(Cl)C2(Cl)Cl [aldrin]
Henry solubility constant Hcp [2, 9]: 0.00011
Henry solubility constant Hcp ([2]; reference: Meylan and Howard (1991)): 0.02

Henry solubility constant Hcp ([2]; reference: Brockbank (2013)): 0.3
Compound: CC(C)(C)CO [2,2-dimethyl-1-propanol]

Henry solubility constant Hcp ([2]; reference: Brockbank (2013)): 0.0074
Compound: CC(C)COC(=O)C(C)C [2-methylpropyl 2-methylpropanoate]

Henry solubility constant Hcp [2, 6]: 0.00024
Compound: FC(F)OC(Cl)C(F)(F)F (stereo not given) [1-chloro-2,2,2-trifluoroethyl difluoromethyl ether]

Henry solubility constant Hcp ([2]; reference: Brockbank (2013)): 6.7e-05
Compound: C1CCCCCC1 [cycloheptane]

Henry solubility constant Hcp ([2]; reference: Brockbank (2013)): 0.0016
Henry solubility constant Hcp [2, 6]: 0.0017
Compound: Cc1ccc(C)c(C)c1 [1,2,4-trimethylbenzene]

Compound: C=CCC#N [3-butenenitrile]
Henry solubility constant Hcp ([2]; reference: Brockbank (2013)): 0.2

Henry solubility constant Hcp ([2]; reference: Brockbank (2013)): 0.0064
Compound: CCOC(=O)C(C)(C)C [ethyl 2,2-dimethylpropanoate]

Compound: CCCC1COC(Cn2cncn2)(c2ccc(Cl)cc2Cl)O1 (stereo not given) [propiconazole]
Henry solubility constant Hcp [2, 9]: 24

Compound: CCC(C)Cl (stereo not given) [2-chlorobutane]
Henry solubility constant Hcp ([2]; reference: Brockbank (2013)): 0.00041

Henry solubility constant Hcp ([2]; reference: Brockbank (2013)): 0.0004
Compound: CCCCCCc1ccccc1 [hexylbenzene]

Compound: CNC(=O)ON=C(SC)C(=O)N(C)C [oxamyl]
Henry solubility constant Hcp [2, 9]: 38

Compound: CC(Cl)CCl (stereo not given) [1,2-dichloropropane]
Henry solubility constant Hcp ([2]; reference: Brockbank (2013)): 0.0034
Henry solubility constant Hcp [2, 4]: 0.0034
Henry solubility constant Hcp [2, 5]: 0.0034
Henry solubility constant Hcp ([2]; reference: Goldstein (1982)): 0.0034
Henry solubility constant Hcp ([2]; reference: Horvath and Getzen (1999)): 0.0035

Henry solubility constant Hcp ([2]; reference: Howard and Meylan (1997)): 15
Compound: c1ccc2[nH]ccc2c1 [indole]

Compound: Clc1ccc(C(c2ccc(Cl)cc2)C(Cl)(Cl)Cl)cc1 [1,1,1-trichloro-2,2-bis-(4-chlorophenyl)-ethane]
Henry solubility constant Hcp [2, 9]: 0.0042

Compound: ClC=C(Cl)Cl [trichloroethene]
Henry solubility constant Hcp ([2]; reference: Brockbank (2013)): 0.001
Henry solubility constant Hcp [2, 4]: 0.0011
Henry solubility constant Hcp [2, 5]: 0.0011
Henry solubility constant Hcp [2, 6]: 0.001
Henry solubility constant Hcp ([2]; reference: Goldstein (1982)): 0.00088

Compound: Clc1cccc(Cl)c1Cl [1,2,3-trichlorobenzene]
Henry solubility constant Hcp ([2]; reference: Brockbank (2013)): 0.0062

Henry solubility constant Hcp ([2]; reference: Brockbank (2013)): 0.066
Compound: CCCCC=O [pentanal]

Henry solubility constant Hcp ([2]; reference: Brockbank (2013)): 0.0027
Compound: Cc1ccc(Cl)cc1Cl [2,4-dichloro-1-methylbenzene]

Henry solubility constant Hcp ([2]; reference: Brockbank (2013)): 0.051
Compound: CCCC(=O)CCC [4-heptanone]

Henry solubility constant Hcp ([2]; reference: Brockbank (2013)): 3e-06
Compound: C=CCCCCCCCCCCCC [1-tetradecene]

Henry solubility constant Hcp ([2]; reference: Brockbank (2013)): 0.012
Compound: CCCCC(C=O)CC (stereo not given) [2-ethylhexanal]

Compound: C=CCl [chloroethene]
Henry solubility constant Hcp ([2]; reference: Brockbank (2013)): 0.00043
Henry solubility constant Hcp [2, 4]: 0.00038
Henry solubility constant Hcp [2, 5]: 0.00038

Henry solubility constant Hcp ([2]; reference: Brockbank (2013)): 0.00018
Compound: C#CCCCCC [1-heptyne]

Compound: CC(=O)OO [ethanoic peroxyacid]
Henry solubility constant Hcp [2, 4]: 8.3
Henry solubility constant Hcp [2, 5]: 8.3
Henry solubility constant Hcp [2, 8]: 8.3

Compound: CS(=O)(=O)c1cc(C(F)(F)F)ccc1C(=O)c1cnoc1C1CC1 [isoxaflutole]
Henry solubility constant Hcp ([2]; reference: MacBean (2012b)): 53000

Henry solubility constant Hcp ([2]; reference: Brockbank (2013)): 1.1e-05
Compound: C=CCCCCCCC [1-nonene]

Henry solubility constant Hcp ([2]; reference: Brockbank (2013)): 0.00027
Compound: CCCCCCCc1ccccc1 [heptylbenzene]

Compound: ClCC(Cl)CCl [1,2,3-trichloropropane]
Henry solubility constant Hcp ([2]; reference: Brockbank (2013)): 0.033
Henry solubility constant Hcp [2, 4]: 0.036
Henry solubility constant Hcp [2, 5]: 0.036

Henry solubility constant Hcp ([2]; reference: Brockbank (2013)): 0.0066
Compound: CCCCOC [methyl butyl ether]

Henry solubility constant Hcp ([2]; reference: Brockbank (2013)): 0.43
Compound: CCCCCN [1-pentanamine]

Compound: CCS [ethanethiol]
Henry solubility constant Hcp [2, 4]: 0.0028
Henry solubility constant Hcp [2, 5]: 0.0028
Henry solubility constant Hcp [2, 7]: 0.0028
Henry solubility constant Hcp [2, 8]: 0.0028

Compound: CCOO [ethyl hydroperoxide]
Henry solubility constant Hcp ([2]; reference: Brockbank (2013)): 3.3
Henry solubility constant Hcp [2, 4]: 3.3
Henry solubility constant Hcp [2, 5]: 3.3
Henry solubility constant Hcp [2, 8]: 3.3

Henry solubility constant Hcp ([2]; reference: Mackay et al. (1992b)): 330
Compound: c1cc2cccc3c4cccc5cccc(c(c1)c23)c54 [perylene]

Henry solubility constant Hcp ([2]; reference: Brockbank (2013)): 0.017
Compound: CCCCOC(=O)CCC [butyl butanoate]

Henry solubility constant Hcp ([2]; reference: Brockbank (2013)): 0.0063
Compound: CCCCCCCCCC=O [decanal]

Compound: CCOP(=S)(OCC)OP(=S)(OCC)OCC [sulfotep]
Henry solubility constant Hcp [2, 9]: 0.0099

Compound: CCCOC=O [propyl methanoate]
Henry solubility constant Hcp ([2]; reference: Brockbank (2013)): 0.031
Henry solubility constant Hcp [2, 4]: 0.026
Henry solubility constant Hcp [2, 5]: 0.026
Henry solubility constant Hcp [2, 8]: 0.026

Compound: [O][Cl+][O-] [chlorine dioxide]
Henry solubility constant Hcp [2, 4]: 0.01
Henry solubility constant Hcp [2, 5]: 0.01
Henry solubility constant Hcp [2, 7]: 0.01
Henry solubility constant Hcp [2, 8]: 0.01
Henry solubility constant Hcp ([2]; reference: Young (1983)): 0.01

Henry solubility constant Hcp ([2]; reference: Brockbank (2013)): 0.079
Compound: CCCC(=O)CC [3-hexanone]

Henry solubility constant Hcp [2, 10]: 0.0098
Compound: COC [dimethyl ether]

Henry solubility constant Hcp ([2]; reference: Clever (1980)): 1.4e-05
Compound: [Ar] [argon]

Compound: FC(F)OC(F)(F)C(F)Cl (stereo not given) [2-chloro-1,1,2-trifluoroethyl difluoromethyl ether]
Henry solubility constant Hcp [2, 6]: 0.0003

Henry solubility constant Hcp ([2]; reference: Brockbank (2013)): 0.00091
Compound: CCCc1ccccc1 [propylbenzene]

Compound: FC(F)(F)F [tetrafluoromethane]
Henry solubility constant Hcp [2, 4]: 2.1e-06
Henry solubility constant Hcp [2, 5]: 2.1e-06
Henry solubility constant Hcp [2, 8]: 2.1e-06

Henry solubility constant Hcp ([2]; reference: Clever (1979a)): 4.5e-06
Compound: [Ne] [neon]

Henry solubility constant Hcp ([2]; reference: Brockbank (2013)): 0.029
Henry solubility constant Hcp [2, 10]: 0.0023
Compound: COc1ccccc1 [methoxybenzene]

Compound: CC(C)N(C(=O)SCC(Cl)=C(Cl)Cl)C(C)C [triallate]
Henry solubility constant Hcp [2, 9]: 0.01

Compound: CC(=O)C(Cl)Cl [1,1-dichloro-2-propanone]
Henry solubility constant Hcp [2, 4]: 0.33
Henry solubility constant Hcp [2, 5]: 0.33

Compound: CCSSCC [diethyl disulfide]
Henry solubility constant Hcp [2, 4]: 0.0037
Henry solubility constant Hcp [2, 5]: 0.0037

Henry solubility constant Hcp ([2]; reference: Brockbank (2013)): 0.068
Compound: CCCCCC(C)=O [2-heptanone]

Compound: Nc1ccccc1[N+](=O)[O-] [2-nitrobenzenamine]
Henry solubility constant Hcp ([2]; reference: Brockbank (2013)): 71

Henry solubility constant Hcp ([2]; reference: Brockbank (2013)): 5.7e-06
Compound: CCCCCC [hexane]

Compound: CN(C)C [trimethylamine]
Henry solubility constant Hcp [2, 4]: 0.099
Henry solubility constant Hcp [2, 5]: 0.099

Compound: CSc1nc(NC(C)C)nc(NC(C)C)n1 [prometryn]
Henry solubility constant Hcp [2, 9]: 20

Compound: CN(C)C(=O)Nc1cccc(C(F)(F)F)c1 [fluometuron]
Henry solubility constant Hcp ([2]; reference: HSDB (2015)): 3800

Henry solubility constant Hcp ([2]; reference: Brockbank (2013)): 0.51
Compound: CC(C)C(C)O (stereo not given) [3-methyl-2-butanol]

Henry solubility constant Hcp ([2]; reference: Brockbank (2013)): 17
Compound: OCCc1ccccc1 [2-phenylethanol]

Henry solubility constant Hcp ([2]; reference: Brockbank (2013)): 0.00057
Compound: CC(C)Cl [2-chloropropane]

Compound: CNC(=O)Oc1ccccc1OC(C)C [propoxur]
Henry solubility constant Hcp [2, 9]: 0.076

Compound: BrC(Br)C(Br)Br [1,1,2,2-tetrabromoethane]
Henry solubility constant Hcp ([2]; reference: Brockbank (2013)): 0.014
Henry solubility constant Hcp [2, 5]: 0.014

Compound: CCOP(=S)(OCC)SCSCC [phorate]
Henry solubility constant Hcp [2, 9]: 0.015
